Holding throughout (format): in vivo
Holding throughout (details): rated 30 days after application

Data set [1] deals with Scirpus juncoides. Nature of the data set: Submersion test, treatment 3 days after transplantation: herbicidal effect. As to the method: (§1) A mixture consisting of 57 parts by weight of talc and 40 parts by weight of bentonite as carrier and 3 parts by weight of sodium alkylbenzenesulfonate as surfactant was pulverized and mixed uniformly to obtain a carrier for wettable powder. Each herbicidal composition was prepared by uniformly pulverizing and mixing 90 parts by weight of the carrier for wettable powder and 10 parts by weight of the benzothiophene derivative produced in each example.
(§2) Seeds of Scirpus juncoides were sowed onto paddy field soil in a Wagner pot of 1/2000 are. Then, rice seedlings of 2.5 leaf stage were transplanted in the soil. Water was pored into the pot so as to submerge the soil at a depth of 3 cm. The pot was placed in a greenhouse maintained at 20 to 25° C. for vegetation. After 3 days from transplantation of the rice seedlings, a predetermined amount of the herbicidal composition prepared in the step [1] was applied to the pot. After 30 days from the application of the herbicidal composition, the herbicidal effect and injury to the paddy rice were determined.
(§3) The herbicidal effect and the injury to crops in the above tests (1) and (2) were evaluated based on the following ratings.
(§4) The degree of weed control (%) was calculated from the weights of the above-ground parts of fresh weeds in the treated area and the untreated area using the following equation:
(§5) Degree of weed control (%)=[1−(weight of weeds in treated area)/(weight of weeds in untreated area)]×100
(§6) The herbicidal effect was determined according to the following ratings: […]

Data set [2] relates to paddy rice. Nature of the data set: Submersion test, treatment 3 days after transplantation: injury to paddy rice. Set-up: key: 0: No injury; 1: Substantially no injury; 2: Slight injury; 3: Some injury; 4: Remarkable injury; 5: Almost all crops dead. As to the method: A mixture consisting of 57 parts by weight of talc and 40 parts by weight of bentonite as carrier and 3 parts by weight of sodium alkylbenzenesulfonate as surfactant was pulverized and mixed uniformly to obtain a carrier for wettable powder. […] Then, rice seedlings of 2.5 leaf stage were transplanted in the soil. Water was pored into the pot so as to submerge the soil at a depth of 3 cm. The pot was placed in a greenhouse maintained at 20 to 25° C. for vegetation. […] After 30 days from the application of the herbicidal composition, the herbicidal effect and injury to the paddy rice were determined. […] The injury to crops was evaluated according to the following ratings: [table]

For data set [3], the system named is Scirpus juncoides. Nature of the data set: Submersion test, treatment 10 days after transplantation: herbicidal effect. As to the method: as §1
as §2, with “vegetation. After 10 days from” for “vegetation. After 3 days from”
as §3, §4, §5, §6

The values that follow come from US20040058957A1, “Benzothiophene derivatives and herbicidal compositions containing the same” (priority 2000, published 2004).

`CSC1Cc2c(ccc(C(=O)C3=C(SCC(C)O)CCCC3=O)c2Cl)S1(=O)=O` (stereo not drawn) [Compound No. 33, 4-chloro-2-methylthio-5-[3-(2-hydroxy-1-propyl)thio-1-oxo-2-cyclohexen-2-yl]carbonyl-2,3-dihydrobenzothiophene 1,1-dioxide]: the “Herbicidal effect Scirpus juncoides” value in data set [1] (application rate 100 g/ha) is reported as 4 (70% or higher but less than 90%); in data set [1] (application rate 200 g/ha), 5 (90% or higher (almost completely dead)); in data set [3] (application rate 100 g/ha), 4 (70% or higher but less than 90%); in data set [3] (application rate 200 g/ha), 5 (90% or higher (almost completely dead)). The Injury paddy rice in data set [2] (application rate 100 g/ha) and in data set [2] (application rate 200 g/ha) was 0 in each case.
With `CSC1Cc2c(ccc(C(=O)C3=C(SCCOC(C)=O)CCCC3=O)c2Cl)S1(=O)=O` (stereo not drawn) [Compound No. 34, 4-chloro-2-methylthio-5-[3-(2-acetoxyethyl)thio-1-oxo-2-cyclohexen-2-yl]carbonyl-2,3-dihydrobenzothiophene 1,1-dioxide], the “Herbicidal effect Scirpus juncoides” value was 4 (70% or higher but less than 90%) in data set [1] (application rate 100 g/ha), 5 (90% or higher (almost completely dead)) in data set [1] (application rate 200 g/ha), 4 (70% or higher but less than 90%) in data set [3] (application rate 100 g/ha) and 5 (90% or higher (almost completely dead)) in data set [3] (application rate 200 g/ha). In addition, the Injury paddy rice in data set [2] (application rate 100 g/ha) and in data set [2] (application rate 200 g/ha) was 0 in each case.
For the molecule `CSC1Cc2c(ccc(C(=O)C3=C(Sc4nccn4C)CCCC3=O)c2Cl)S1(=O)=O` (stereo not drawn) [Compound No. 35, 4-chloro-2-methylthio-5-[3-(1-methylimidazol-2-yl)thio-1-oxo-2-cyclohexen-2-yl]carbonyl-2,3-dihydrobenzothiophene 1,1-dioxide], the “Herbicidal effect Scirpus juncoides” value in data set [1] (application rate 100 g/ha) was 4 (70% or higher but less than 90%); in data set [1] (application rate 200 g/ha) it was 5 (90% or higher (almost completely dead)); in data set [3] (application rate 100 g/ha) it was 4 (70% or higher but less than 90%); in data set [3] (application rate 200 g/ha), 5 (90% or higher (almost completely dead)). Moreover, the Injury paddy rice in data set [2] (application rate 100 g/ha) and in data set [2] (application rate 200 g/ha) was 0 in each case.
Take `CCOC1=C(C(=O)c2ccc3c(c2Cl)CC(SC)S3(=O)=O)C(=O)CCC1` (stereo not drawn) [Compound No. 37, 4-chloro-2-methylthio-5-(3-ethoxy-1-oxo-2-cyclohexen-2-yl)carbonyl-2,3-dihydrobenzothiophene 1,1-dioxide]: the “Herbicidal effect Scirpus juncoides” value in data set [1] (application rate 100 g/ha), in data set [1] (application rate 200 g/ha), in data set [3] (application rate 100 g/ha) and in data set [3] (application rate 200 g/ha) was 5 (90% or higher (almost completely dead)) each time. Also, the Injury paddy rice in data set [2] (application rate 100 g/ha) and in data set [2] (application rate 200 g/ha) was 0 in each case.
Consider `CSC1Cc2c(ccc(C(=O)C3=C(N4CCC=N4)CCCC3=O)c2Cl)S1(=O)=O` (stereo not drawn) [Compound No. 38, 4-chloro-2-methylthio-5-[3-(4,5-dihydropyrazol-1-yl)-1-oxo-2-cyclohexen-2-yl]carbonyl-2,3-dihydrobenzothiophene 1,1-dioxide], for which the “Herbicidal effect Scirpus juncoides” value in data set [1] (application rate 100 g/ha) is on record as 4 (70% or higher but less than 90%); in data set [1] (application rate 200 g/ha), 5 (90% or higher (almost completely dead)); in data set [3] (application rate 100 g/ha), 4 (70% or higher but less than 90%); in data set [3] (application rate 200 g/ha), 5 (90% or higher (almost completely dead)). Besides, the Injury paddy rice in data set [2] (application rate 100 g/ha) and in data set [2] (application rate 200 g/ha) was 0 in each case.
As for `CSC1Cc2c(ccc(C(=O)C3=C(n4cccn4)CCCC3=O)c2Cl)S1(=O)=O` (stereo not drawn) [Compound No. 39, 4-chloro-2-methylthio-5-[3-(pyrazol-1-yl)-1-oxo-2-cyclohexen-2-yl]carbonyl-2,3-dihydrobenzothiophene 1,1-dioxide], the “Herbicidal effect Scirpus juncoides” value in data set [1] (application rate 100 g/ha) is listed as 4 (70% or higher but less than 90%); in data set [1] (application rate 200 g/ha), 5 (90% or higher (almost completely dead)); in data set [3] (application rate 100 g/ha), 4 (70% or higher but less than 90%); in data set [3] (application rate 200 g/ha), 5 (90% or higher (almost completely dead)). In addition, the Injury paddy rice in data set [2] (application rate 100 g/ha) and in data set [2] (application rate 200 g/ha) was 0 each time.
Regarding `CSC1Cc2c(ccc(C(=O)C3C(=O)CCCC3=O)c2Br)S1(=O)=O` (stereo not drawn) [Compound No. 41, 4-bromo-2-methylthio-5-(1,3-dioxocyclohex-2-yl)carbonyl-2,3-dihydrobenzothiophene 1,1-dioxide], the “Herbicidal effect Scirpus juncoides” value in data set [1] (application rate 100 g/ha), in data set [1] (application rate 200 g/ha), in data set [3] (application rate 100 g/ha) and in data set [3] (application rate 200 g/ha) was 5 (90% or higher (almost completely dead)) in each case. Further, the Injury paddy rice in data set [2] (application rate 100 g/ha) and in data set [2] (application rate 200 g/ha) was 0 each time.
As to `COCCSC1Cc2c(Cl)c(C(=O)C3C(=O)CCCC3=O)cc(C)c2S1(=O)=O` (stereo not drawn) [Compound No. 45, 4-chloro-7-methyl-2-(2-methoxyethyl)thio-5-(1,3-dioxocyclohex-2-yl)carbonyl-2,3-dihydrobenzothiophene 1,1-dioxide], the “Herbicidal effect Scirpus juncoides” value in data set [1] (application rate 100 g/ha), in data set [1] (application rate 200 g/ha), in data set [3] (application rate 100 g/ha) and in data set [3] (application rate 200 g/ha) was 5 (90% or higher (almost completely dead)) throughout. The Injury paddy rice in data set [2] (application rate 100 g/ha) and in data set [2] (application rate 200 g/ha) was 0 throughout.
`Cc1cc(C(=O)C2C(=O)CCCC2=O)c(Cl)c2c1S(=O)(=O)C(S(C)(=O)=O)C2` (stereo not drawn) [Compound No. 46, 4-chloro-7-methyl-2-methanesulfonyl-5-(1,3-dioxocyclohex-2-yl)carbonyl-2,3-dihydrobenzothiophene 1,1-dioxide]: the “Herbicidal effect Scirpus juncoides” value in data set [1] (application rate 100 g/ha) is given as 5 (90% or higher (almost completely dead)); in data set [1] (application rate 200 g/ha), 5 (90% or higher (almost completely dead)); in data set [3] (application rate 100 g/ha), 4 (70% or higher but less than 90%); in data set [3] (application rate 200 g/ha), 5 (90% or higher (almost completely dead)). The Injury paddy rice in data set [2] (application rate 100 g/ha) and in data set [2] (application rate 200 g/ha) was 0 throughout.
As to `CSC1Cc2c(Cl)c(C(=O)C3=C(Cl)CCCC3=O)cc(C)c2S1(=O)=O` (stereo not drawn) [Compound No. 49, 4-chloro-7-methyl-2-methylthio-5-(3-chloro-1-oxo-2-cyclohexen-2-yl)carbonyl-2,3-dihydrobenzothiophene 1,1-dioxide], the “Herbicidal effect Scirpus juncoides” value in data set [1] (application rate 100 g/ha), in data set [1] (application rate 200 g/ha), in data set [3] (application rate 100 g/ha) and in data set [3] (application rate 200 g/ha) was 5 (90% or higher (almost completely dead)) in each case. The Injury paddy rice in data set [2] (application rate 100 g/ha) and in data set [2] (application rate 200 g/ha) was 0 throughout.
Turning to `CSC1Cc2c(Cl)c(C(=O)C3=C(SCCO)CCCC3=O)cc(C)c2S1(=O)=O` (stereo not drawn) [Compound No. 50, 4-chloro-7-methyl-2-methylthio-5-[3-(2-hydroxyethyl)thio-1-oxo-2-cyclohexen-2-yl]carbonyl-2,3-dihydrobenzothiophene 1,1-dioxide], the “Herbicidal effect Scirpus juncoides” value in data set [1] (application rate 100 g/ha), in data set [1] (application rate 200 g/ha), in data set [3] (application rate 100 g/ha) and in data set [3] (application rate 200 g/ha) was 5 (90% or higher (almost completely dead)) in each case. Also, the Injury paddy rice in data set [2] (application rate 100 g/ha) and in data set [2] (application rate 200 g/ha) was 0 throughout.
